From US7138361B2, “Herbicidal heterocycles” (E. I. du Pont de Nemours and Company, priority 2000, dated 2006)

Tests used:
Assay type in all cases: in vivo
[1] = system: Surinam grass (Brachiaria decumbens); experiment: Test B postemergence; details: 13 to 15 days
How it was run: (§1)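 Visual injury scores, 0 = no effect to 100 = complete control, assigned against controls after 13 to 15 days in the greenhouse. Compounds formulated in non-phytotoxic solvent plus surfactant and applied to soil after planting (pre) or onto foliage of 1- to 4-leaf plants (post).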

[2] = system: barnyardgrass (Echinochloa crus-galli); experiment: Test B postemergence; details: 13 to 15 days
How it was run: as §1

[3] = system: blackgrass (Alopecurus myosuroides); experiment: Test B postemergence; details: 13 to 15 days
How it was run: as §1

corn (Zea mays) [4] = experiment: Test B postemergence; details: 13 to 15 days
How it was run: as §1

[5] = system: giant foxtail (Setaria faberii); experiment: Test B postemergence; details: 13 to 15 days
How it was run: as §1

[6] = system: morning glory (Ipomoea hederacea); experiment: Test B postemergence; details: 13 to 15 days
How it was run: as §1

[7] = system: pigweed (Amaranthus retroflexus); experiment: Test B postemergence; details: 13 to 15 days
How it was run: as §1

[8] = system: velvetleaf (Abutilon theophrasti); experiment: Test B postemergence; details: 13 to 15 days
How it was run: as §1

[9] = system: wheat (Triticum aestivum); experiment: Test B postemergence; details: 13 to 15 days
How it was run: as §1

[10] = system: Surinam grass (Brachiaria decumbens); experiment: Test B preemergence
How it was run: as §1

[11] = system: barnyardgrass (Echinochloa crus-galli); experiment: Test B preemergence
How it was run: as §1

[12] = system: cocklebur (Xanthium strumarium); experiment: Test B preemergence
How it was run: as §1

corn (Zea mays) [13] = experiment: Test B preemergence
How it was run: as §1

[14] = system: crabgrass (Digitaria sanguinalis); experiment: Test B preemergence
How it was run: as §1

[15] = system: giant foxtail (Setaria faberii); experiment: Test B preemergence
How it was run: as §1

[16] = system: lambsquarters (Chenopodium album); experiment: Test B preemergence
How it was run: as §1

[17] = system: morning glory (Ipomoea hederacea); experiment: Test B preemergence
How it was run: as §1

[18] = system: pigweed (Amaranthus retroflexus); experiment: Test B preemergence
How it was run: as §1

rice (Oryza saliva) [19] = experiment: Test B preemergence
How it was run: as §1

[20] = system: velvetleaf (Abutilon theophrasti); experiment: Test B preemergence
How it was run: as §1

[21] = system: barnyardgrass (Echinochloa crus-galli); experiment: Test C flooded paddy test; details: for Barnyardgrass plant response rating: Flooded Paddy, scale 0 to 100, 0 no effect, 100 complete control; for Plant response rating, Barnyardgrass / Plant response rating (scale 0 to 100), Barnyardgrass: flooded paddy test; for Plant response rating, Barnyardgrass: scale 0 to 100 (0 no effect, 100 complete control)
How it was run: (§2)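 Flooded paddy, 2-leaf stage at treatment. Readout: visual % control vs untreated, 0–100, at 12–14 d in greenhouse.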

[22] = system: duck salad (Heteranthera limosa); experiment: Test C flooded paddy test; details: for Ducksalad plant response rating: Flooded Paddy, scale 0 to 100, 0 no effect, 100 complete control; for Plant response rating, Ducksalad / Plant response rating (scale 0 to 100), Ducksalad: flooded paddy test; for Plant response rating, Ducksalad: scale 0 to 100 (0 no effect, 100 complete control)
How it was run: as §2

rice (Oryza saliva) [23] = experiment: Test C flooded paddy test; details: for Rice plant response rating: Flooded Paddy, scale 0 to 100, 0 no effect, 100 complete control; for Plant response rating, Rice / Plant response rating (scale 0 to 100), Rice: flooded paddy test; for Plant response rating, Rice: scale 0 to 100 (0 no effect, 100 complete control)
How it was run: as §2

[24] = system: smallflower flatsedge (Cyperus difformis); experiment: Test C flooded paddy test; details: for Flatsedge plant response rating: Flooded Paddy, scale 0 to 100, 0 no effect, 100 complete control; for Plant response rating, Flatsedge / Plant response rating (scale 0 to 100), Flatsedge: flooded paddy test; for Plant response rating, Flatsedge: scale 0 to 100 (0 no effect, 100 complete control)
How it was run: as §2

Nightshade = experiment: Test C preemergence; details: visual evaluation after 12 to 14 days
Sunflower = experiment: Test C preemergence; details: scale 0 to 100, 0 no effect, 100 complete control
[25] = Rate 125 g/ha, scale 0 (no effect) to 100 (complete control)
[26] = Rate 500 g/ha, scale 0 to 100, 0 is no effect, 100 is complete control
[27] = Preemergence, Rate 500 g/ha, scale 0 to 100, 0 no effect, 100 complete control
[28] = preemergence, Rate 125 g/ha, scale of 0 to 100 where 0 is no effect and 100 is complete control, 13 to 15 days
[29] = Rate 16 g/ha, visually evaluated after 12 to 14 days, 0 = no effect, 100 = complete control
[30] = under head Rate 16 g/ha, (own rate not given), after 12 to 14 days

## CC(C)(C)c1ccn(C2CCN(c3ccc(Cl)c(Br)c3)C2=O)n1 (centres unmarked) [Compound 56]
[1]; [25]
  Plant response rating, Surinam grass: 0
[1]; [26]
  Plant response rating, Surinam grass: 0
[2]; [25]
  Plant response rating, Barnyardgrass: 0
[2]; [26]
  Plant response rating, Barnyardgrass: 0
[3]; [25]
  Plant response rating, Blackgrass: 0
[3]; [26]
  Plant response rating, Blackgrass: 0
Corn (Zea mays) [4]; [25]
  Plant response rating, Corn: 0
Corn (Zea mays) [4]; [26]
  Plant response rating, Corn: 0
[5]; [25]
  Plant response rating, Foxtail, Giant: 0
[5]; [26]
  Plant response rating, Foxtail, Giant: 0
[6]; [25]
  Plant response rating, Morningglory: 0
[6]; [26]
  Plant response rating, Morningglory: 10
[7]; [25]
  Plant response rating, Pigweed: 90
[7]; [26]
  Plant response rating, Pigweed: 90
[8]; [25]
  Plant response rating, Velvetleaf: 0
[8]; [26]
  Plant response rating, Velvetleaf: 0
[9]; [25]
  Plant response rating, Wheat: 0
[9]; [26]
  Plant response rating, Wheat: 0
[10]; [27]
  Plant response rating, Surinam grass: 30
[10]; [28]
  Plant response rating, Surinam grass: 30
[11]; [27]
  Plant response rating, Barnyardgrass: 50
[11]; [28]
  Plant response rating, Barnyardgrass: 0
[12]; [28]
  Plant response rating, Cocklebur: 0
Corn (Zea mays) [13]; [27]
  Plant response rating, Corn: 0
Corn (Zea mays) [13]; [28]
  Plant response rating, Corn: 0
[14]; [27]
  Plant response rating, Crabgrass: 100
[14]; [28]
  Plant response rating, Crabgrass: 30
[15]; [27]
  Plant response rating, Foxtail, Giant: 90
[15]; [28]
  Plant response rating, Foxtail, Giant: 50
[16]; [27]
  Plant response rating, Lambsquarters: 100
[16]; [28]
  Plant response rating, Lambsquarters: 100
[17]; [27]
  Plant response rating, Morningglory: 0
[17]; [28]
  Plant response rating, Morningglory: 0
[18]; [27]
  Plant response rating, Pigweed: 100
[18]; [28]
  Plant response rating, Pigweed: 100
Rice (Oryza saliva) [19]; [27]
  Plant response rating, Rice: 0
Rice (Oryza saliva) [19]; [28]
  Plant response rating, Rice: 0
[20]; [27]
  Plant response rating, Velvetleaf: 0
[20]; [28]
  Plant response rating, Velvetleaf: 0
[21]; Rate 250 g/ha
  Barnyardgrass plant response rating: 30
[21]; Rate 500 g/ha
  Barnyardgrass plant response rating: 30
[21]; Rate 62 g/ha
  Plant response rating, Barnyardgrass: 0
[21]; Rate 125 g/ha
  Plant response rating, Barnyardgrass: 30
[22]; Rate 250 g/ha
  Ducksalad plant response rating: 0
[22]; Rate 500 g/ha
  Ducksalad plant response rating: 0
[22]; Rate 62 g/ha
  Plant response rating, Ducksalad: 0
[22]; Rate 125 g/ha
  Plant response rating, Ducksalad: 0
Rice (Oryza saliva) [23]; Rate 250 g/ha
  Rice plant response rating: 0
Rice (Oryza saliva) [23]; Rate 500 g/ha
  Rice plant response rating: 0
Rice (Oryza saliva) [23]; Rate 62 g/ha
  Plant response rating, Rice: 0
Rice (Oryza saliva) [23]; Rate 125 g/ha
  Plant response rating, Rice: 0
[24]; Rate 250 g/ha
  Flatsedge plant response rating: 90
[24]; Rate 500 g/ha
  Flatsedge plant response rating: 90
[24]; Rate 62 g/ha
  Plant response rating, Flatsedge: 80
[24]; Rate 125 g/ha
  Plant response rating, Flatsedge: 80
Nightshade; Rate 250 g/ha
  Plant response rating (0 to 100), Nightshade: 0
Sunflower; Rate 125 g/ha
  Plant response rating, Sunflower: 0

## CCCC(C)c1ccn(C2OCN(c3cccc(OC(F)(F)F)c3)C2=O)n1 (centres unmarked) [Compound 91]
[1]; [25]
  Plant response rating, Surinam grass: 10
[1]; [26]
  Plant response rating, Surinam grass: 10
[2]; [25]
  Plant response rating, Barnyardgrass: 50
[2]; [26]
  Plant response rating, Barnyardgrass: 90
[3]; [25]
  Plant response rating, Blackgrass: 0
[3]; [26]
  Plant response rating, Blackgrass: 0
Corn (Zea mays) [4]; [25]
  Plant response rating, Corn: 0
Corn (Zea mays) [4]; [26]
  Plant response rating, Corn: 10
[5]; [25]
  Plant response rating, Foxtail, Giant: 0
[5]; [26]
  Plant response rating, Foxtail, Giant: 40
[6]; [26]
  Plant response rating, Morningglory: 80
[7]; [26]
  Plant response rating, Pigweed: 90
[8]; [26]
  Plant response rating, Velvetleaf: 30
[9]; [26]
  Plant response rating, Wheat: 0
[10]; [27]
  Plant response rating, Surinam grass: 80
[10]; [28]
  Plant response rating, Surinam grass: 70
[11]; [27]
  Plant response rating, Barnyardgrass: 100
[11]; [28]
  Plant response rating, Barnyardgrass: 100
[12]; [27]
  Plant response rating, Cocklebur: 0
[12]; [28]
  Plant response rating, Cocklebur: 0
Corn (Zea mays) [13]; [27]
  Plant response rating, Corn: 30
Corn (Zea mays) [13]; [28]
  Plant response rating, Corn: 0
[14]; [27]
  Plant response rating, Crabgrass: 100
[14]; [28]
  Plant response rating, Crabgrass: 100
[15]; [27]
  Plant response rating, Foxtail, Giant: 100
[15]; [28]
  Plant response rating, Foxtail, Giant: 90
[16]; [27]
  Plant response rating, Lambsquarters: 100
[16]; [28]
  Plant response rating, Lambsquarters: 100
[17]; [27]
  Plant response rating, Morningglory: 0
[17]; [28]
  Plant response rating, Morningglory: 0
[18]; [27]
  Plant response rating, Pigweed: 100
[18]; [28]
  Plant response rating, Pigweed: 90
Rice (Oryza saliva) [19]; [27]
  Plant response rating, Rice: 0
Rice (Oryza saliva) [19]; [28]
  Plant response rating, Rice: 0
[20]; [27]
  Plant response rating, Velvetleaf: 0
[20]; [28]
  Plant response rating, Velvetleaf: 0
[21]; Rate 250 g/ha
  Barnyardgrass plant response rating: 100
[21]; Rate 500 g/ha
  Barnyardgrass plant response rating: 100
[21]; Rate 62 g/ha
  Plant response rating, Barnyardgrass: 0
[21]; Rate 125 g/ha
  Plant response rating, Barnyardgrass: 50
[21]; [29]
  Plant response rating (scale 0 to 100), Barnyardgrass: 0
[21]; [30]
  Plant response rating (scale 0 to 100), Barnyardgrass: 0
[22]; Rate 250 g/ha
  Ducksalad plant response rating: 90
[22]; Rate 500 g/ha
  Ducksalad plant response rating: 70
[22]; Rate 62 g/ha
  Plant response rating, Ducksalad: 80
[22]; Rate 125 g/ha
  Plant response rating, Ducksalad: 0
[22]; [29]
  Plant response rating (scale 0 to 100), Ducksalad: 0
[22]; [30]
  Plant response rating (scale 0 to 100), Ducksalad: 0
Rice (Oryza saliva) [23]; Rate 250 g/ha
  Rice plant response rating: 20
Rice (Oryza saliva) [23]; Rate 500 g/ha
  Rice plant response rating: 40
Rice (Oryza saliva) [23]; Rate 62 g/ha
  Plant response rating, Rice: 0
Rice (Oryza saliva) [23]; Rate 125 g/ha
  Plant response rating, Rice: 20
Rice (Oryza saliva) [23]; [29]
  Plant response rating (scale 0 to 100), Rice: 0
Rice (Oryza saliva) [23]; [30]
  Plant response rating (scale 0 to 100), Rice: 0
[24]; Rate 250 g/ha
  Flatsedge plant response rating: 100
[24]; Rate 500 g/ha
  Flatsedge plant response rating: 100
[24]; Rate 62 g/ha
  Plant response rating, Flatsedge: 0
[24]; Rate 125 g/ha
  Plant response rating, Flatsedge: 70
[24]; [29]
  Plant response rating (scale 0 to 100), Flatsedge: 0
[24]; [30]
  Plant response rating (scale 0 to 100), Flatsedge: 0
Nightshade; Rate 500 g/ha
  Plant response rating (0 to 100), Nightshade: 10
Sunflower; Rate 250 g/ha
  Plant response rating, Sunflower: 0
